{
  "source": "PubChem BioAssay AID743370",
  "note": "Calls of active or inactive are those of the source. No rule for the calls is given here.",
  "data": [
    {"molecular_target": "Acetylcholine receptor subunit alpha (Tetronarce californica) + Acetylcholine receptor subunit beta (Tetronarce californica) + Acetylcholine receptor subunit gamma (Tetronarce californica) + Acetylcholine receptor subunit delta (Tetronarce californica) (UniProt P02710+P02712+P02714+P02718)", "sequence (P02710 whole entry, looked up)": "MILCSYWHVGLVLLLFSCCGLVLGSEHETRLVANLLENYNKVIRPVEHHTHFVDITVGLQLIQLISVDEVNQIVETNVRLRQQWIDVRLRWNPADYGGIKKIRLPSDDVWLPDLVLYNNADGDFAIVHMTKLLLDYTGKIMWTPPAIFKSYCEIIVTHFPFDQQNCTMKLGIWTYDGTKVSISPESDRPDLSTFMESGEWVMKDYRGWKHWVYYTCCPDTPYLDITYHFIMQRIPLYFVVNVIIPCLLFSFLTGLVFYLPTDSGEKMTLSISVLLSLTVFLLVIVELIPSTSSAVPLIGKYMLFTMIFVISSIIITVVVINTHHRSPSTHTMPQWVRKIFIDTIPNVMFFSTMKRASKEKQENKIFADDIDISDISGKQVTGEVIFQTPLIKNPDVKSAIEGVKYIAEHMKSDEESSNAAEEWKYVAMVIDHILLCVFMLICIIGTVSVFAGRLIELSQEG", "sequence (P02712 whole entry, looked up)": "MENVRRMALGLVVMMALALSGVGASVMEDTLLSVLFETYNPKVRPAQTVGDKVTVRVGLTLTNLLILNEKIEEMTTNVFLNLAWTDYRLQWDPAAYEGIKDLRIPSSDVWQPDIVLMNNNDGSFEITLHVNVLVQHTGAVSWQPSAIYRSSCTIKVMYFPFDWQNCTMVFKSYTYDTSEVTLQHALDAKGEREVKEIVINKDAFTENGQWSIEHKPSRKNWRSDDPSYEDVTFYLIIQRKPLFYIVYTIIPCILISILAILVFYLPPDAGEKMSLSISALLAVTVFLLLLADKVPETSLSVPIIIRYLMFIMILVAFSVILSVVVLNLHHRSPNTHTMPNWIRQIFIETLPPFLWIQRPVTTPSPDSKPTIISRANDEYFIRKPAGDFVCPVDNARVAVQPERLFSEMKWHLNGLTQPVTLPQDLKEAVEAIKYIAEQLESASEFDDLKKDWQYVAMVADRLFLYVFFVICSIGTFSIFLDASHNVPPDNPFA", "sequence (P02714 whole entry, looked up)": "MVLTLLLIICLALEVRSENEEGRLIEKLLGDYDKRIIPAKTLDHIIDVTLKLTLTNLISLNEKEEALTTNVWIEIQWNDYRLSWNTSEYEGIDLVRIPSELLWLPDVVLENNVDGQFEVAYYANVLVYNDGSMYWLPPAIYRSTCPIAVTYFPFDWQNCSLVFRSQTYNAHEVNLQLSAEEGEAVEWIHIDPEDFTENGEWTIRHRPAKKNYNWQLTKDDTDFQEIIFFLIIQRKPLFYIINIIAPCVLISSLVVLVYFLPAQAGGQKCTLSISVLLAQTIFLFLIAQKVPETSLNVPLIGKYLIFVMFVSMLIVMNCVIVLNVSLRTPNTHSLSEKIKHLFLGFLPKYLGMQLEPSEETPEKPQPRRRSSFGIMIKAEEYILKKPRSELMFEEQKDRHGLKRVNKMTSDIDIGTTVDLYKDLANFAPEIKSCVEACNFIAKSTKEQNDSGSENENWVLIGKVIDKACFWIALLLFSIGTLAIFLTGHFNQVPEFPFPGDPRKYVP", "sequence (P02718 whole entry, looked up)": "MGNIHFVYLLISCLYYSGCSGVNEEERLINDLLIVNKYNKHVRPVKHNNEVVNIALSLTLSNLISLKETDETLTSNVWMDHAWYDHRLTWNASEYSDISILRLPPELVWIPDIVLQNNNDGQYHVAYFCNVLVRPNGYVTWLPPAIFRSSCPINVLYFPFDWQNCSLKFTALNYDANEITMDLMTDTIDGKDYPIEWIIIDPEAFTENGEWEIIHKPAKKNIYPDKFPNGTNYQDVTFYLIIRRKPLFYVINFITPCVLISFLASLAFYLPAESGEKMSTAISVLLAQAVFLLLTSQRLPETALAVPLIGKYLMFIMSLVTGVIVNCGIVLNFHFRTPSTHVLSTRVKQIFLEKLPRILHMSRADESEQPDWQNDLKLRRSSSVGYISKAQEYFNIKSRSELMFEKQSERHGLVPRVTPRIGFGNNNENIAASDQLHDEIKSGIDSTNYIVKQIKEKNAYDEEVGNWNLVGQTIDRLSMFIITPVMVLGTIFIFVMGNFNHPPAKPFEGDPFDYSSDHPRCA", "assay": "Torpedo nAChR binders, biochemical, Torpedo californica electric organ membranes, [125I]alpha-bungarotoxin (AID 743370)", "settings": "[125I]alpha-bungarotoxin displacement", "values": [
      {"smiles": "CC/C=C/[C@@H]1CC[C@]2(C[C@H]3CC[C@H]4[C@@H](C(=O)OC(CC)CCCCCCCCCCCCC[C@@H]5O[C@](O)(CCN)[C@H](O)N(CCCN)C5=O)[C@@]5(CCC[C@H](C)O5)NC(=[N+]34)N2)O1", "note": "(stereo partly specified)", "Ki": "8 µM"},
      {"smiles": "COn1c(Br)c2c3c(cccc31)[C@H]1C[C@@H](C)CN(C)[C@@H]1C2", "Ki": "44 µM"},
      {"smiles": "NC1=N/C(=C2/CCNC(=O)c3[nH]ccc32)C(=O)N1", "Ki": "inactive"},
      {"smiles": "COc1cc2c3c(ccnc3c1OC)NC=C2", "Ki": "34 µM"},
      {"smiles": "C[C@@H](N)[C@H](O)CCCCCCCC(=O)CCCCCCCCCCCCCC[C@@H](O[C@@H]1O[C@H](CO)[C@H](O)[C@H](O)[C@H]1O)[C@@H](C)N", "Ki": "22 µM"},
      {"smiles": "COc1cc(CCN)c2c(c1OC)SSSSS2", "Ki": "10 µM"}
    ]}
  ]
}
